Activity calls are given as the source filed them. The rule behind the calls is not given here.

Results on seven compounds are retold here after PubChem BioAssay AID1259407 (Chemical Carcinogenesis Research Information System (CCRIS), 2018).

The series concerns CCRIS mutagenicity, Ames/micronucleus/aberration tests. Description: CCRIS mutagenicity studies.
[1] abbreviates: Test System: AMES SALMONELLA TYPHIMURIUM, Strain/Indicator: TA98, Metabolic Activation: NONE, Method: STANDARD PLATE.
The mark [2] stands for this setting: Test System: AMES SALMONELLA TYPHIMURIUM, Strain/Indicator: TA100, Metabolic Activation: NONE, Method: STANDARD PLATE.
Where [3] appears, read: Test System: AMES SALMONELLA TYPHIMURIUM, Strain/Indicator: TA102, Metabolic Activation: NONE, Method: STANDARD PLATE.
Setting [4] is: Test System: AMES SALMONELLA TYPHIMURIUM, Strain/Indicator: TA98, Metabolic Activation: RAT, LIVER, S-9, AROCLOR 1254, Method: STANDARD PLATE.
The mark [5] stands for this setting: Test System: AMES SALMONELLA TYPHIMURIUM, Strain/Indicator: TA100, Metabolic Activation: RAT, LIVER, S-9, AROCLOR 1254, Method: STANDARD PLATE.
The mark [6] stands for this setting: Test System: AMES SALMONELLA TYPHIMURIUM, Strain/Indicator: TA1535, Metabolic Activation: NONE, Method: STANDARD PLATE.
The mark [7] stands for this setting: Test System: AMES SALMONELLA TYPHIMURIUM, Strain/Indicator: TA1535, Metabolic Activation: RAT, LIVER, S-9, AROCLOR 1254, Method: STANDARD PLATE.
The mark [8] stands for this setting: Test System: AMES SALMONELLA TYPHIMURIUM, Strain/Indicator: TA1537, Metabolic Activation: NONE, Method: STANDARD PLATE.
Where [9] appears, read: Test System: AMES SALMONELLA TYPHIMURIUM, Strain/Indicator: TA1537, Metabolic Activation: RAT, LIVER, S-9, AROCLOR 1254, Method: STANDARD PLATE.
The mark [10] stands for this setting: Test System: AMES SALMONELLA TYPHIMURIUM, Strain/Indicator: TA98, Metabolic Activation: NONE, Method: PREINCUBATION
Where [11] appears, read: Test System: AMES SALMONELLA TYPHIMURIUM, Strain/Indicator: TA100, Metabolic Activation: NONE, Method: PREINCUBATION

`CCC(C)(C)c1cc(-n2nc3ccccc3n2)c(O)c(C(C)(C)CC)c1`: the mutagenic call is, setting by setting: (Test System: AMES SALMONELLA TYPHIMURIUM, Strain/Indicator: TA97, Metabolic Activation: NONE, Method: STANDARD PLATE) “inactive; negative”; (Test System: AMES SALMONELLA TYPHIMURIUM, Strain/Indicator: TA97, Metabolic Activation: S-9, Method: STANDARD PLATE) “inactive; negative”; under setting [1], “inactive; negative”; (Test System: AMES SALMONELLA TYPHIMURIUM, Strain/Indicator: TA98, Metabolic Activation: S-9, Method: STANDARD PLATE) “inactive; negative”; under setting [2], “inactive; negative”; (Test System: AMES SALMONELLA TYPHIMURIUM, Strain/Indicator: TA100, Metabolic Activation: S-9, Method: STANDARD PLATE) “inactive; negative”. In addition, the mutagenic call by setting is: under setting [3], “inactive; negative”; (Test System: AMES SALMONELLA TYPHIMURIUM, Strain/Indicator: TA102, Metabolic Activation: S-9, Method: STANDARD PLATE) “inactive; negative”; (Test System: E.COLI, Strain/Indicator: WP2 (PKM101), Metabolic Activation: NONE, Method: STANDARD PLATE) “inactive; negative”; (Test System: E.COLI, Strain/Indicator: WP2 (PKM101), Metabolic Activation: S-9, Method: STANDARD PLATE) “inactive; negative”.

Consider `CC12CCC(=O)NC1=CCC1C2CCC2(C)C(OC(=O)CCCc3ccc(N(CCCl)CCCl)cc3)CCC12` (configuration not stated), for which the mutagenic call by setting is: under setting [1], “inactive; negative”; under setting [4], “inactive; negative”; under setting [2], “active; positive”; under setting [5], “active; positive”; under setting [3], “inactive; negative”; (Test System: AMES SALMONELLA TYPHIMURIUM, Strain/Indicator: TA102, Metabolic Activation: RAT, LIVER, S-9, AROCLOR 1254, Method: STANDARD PLATE) “inactive; negative”. For the same compound, the mutagenic call by setting is: under setting [6], “active; positive”; under setting [7], “active; positive”; under setting [8], “inactive; negative”; under setting [9], “inactive; negative”.

Consider `CCOc1ccccc1OCC1CNCCO1` (configuration not stated), for which the mutagenic call by setting is: under setting [1], “inactive; negative”; under setting [4], “inactive; negative”; under setting [2], “inactive; negative”; under setting [5], “inactive; negative”; under setting [6], “inactive; negative”; under setting [7], “inactive; negative”. For the same compound, the mutagenic call reads like this: under setting [8], “inactive; negative”; under setting [9], “inactive; negative”.

As to `C=C(C)C(=O)OCCCCCCCC`, the mutagenic call (Test System: AMES SALMONELLA TYPHIMURIUM, Strain/Indicator: TA97, Metabolic Activation: HAMSTER, LIVER, S-9, AROCLOR 1254 (10 OR 30%), Method: PREINCUBATION) was “inactive; negative”; the mutagenic call (Test System: AMES SALMONELLA TYPHIMURIUM, Strain/Indicator: TA97, Metabolic Activation: NONE, Method: PREINCUBATION) is “inactive; negative”; the mutagenic call (Test System: AMES SALMONELLA TYPHIMURIUM, Strain/Indicator: TA97, Metabolic Activation: RAT, LIVER, S-9, AROCLOR 1254 (10 OR 30%), Method: PREINCUBATION) is “inactive; negative”; the mutagenic call (Test System: AMES SALMONELLA TYPHIMURIUM, Strain/Indicator: TA98, Metabolic Activation: HAMSTER, LIVER, S-9, AROCLOR 1254 (10%), Method: PREINCUBATION) is “inactive; negative”; the mutagenic call (Test System: AMES SALMONELLA TYPHIMURIUM, Strain/Indicator: TA98, Metabolic Activation: HAMSTER, LIVER, S-9, AROCLOR 1254 (30%), Method: PREINCUBATION) is “inactive; negative”; the mutagenic call under setting [10] was “inactive; negative”. The mutagenic call (Test System: AMES SALMONELLA TYPHIMURIUM, Strain/Indicator: TA98, Metabolic Activation: RAT, LIVER, S-9, AROCLOR 1254 (10%), Method: PREINCUBATION) was “inactive; negative”; the mutagenic call (Test System: AMES SALMONELLA TYPHIMURIUM, Strain/Indicator: TA98, Metabolic Activation: RAT, LIVER, S-9, AROCLOR 1254 (30%), Method: PREINCUBATION) was “inactive; negative”; the mutagenic call (Test System: AMES SALMONELLA TYPHIMURIUM, Strain/Indicator: TA100, Metabolic Activation: HAMSTER, LIVER, S-9, AROCLOR 1254 (10 OR 30%), Method: PREINCUBATION) was “inactive; negative”; the mutagenic call under setting [11] was “inactive; negative”; the mutagenic call (Test System: AMES SALMONELLA TYPHIMURIUM, Strain/Indicator: TA100, Metabolic Activation: RAT, LIVER, S-9, AROCLOR 1254 (10 OR 30%), Method: PREINCUBATION) was “inactive; negative”; the mutagenic call (Test System: AMES SALMONELLA TYPHIMURIUM, Strain/Indicator: TA1535, Metabolic Activation: HAMSTER, LIVER, AROCLOR 1254 (10 OR 30%), Method: PREINCUBATION) was “inactive; negative”. The mutagenic call runs as follows: (Test System: AMES SALMONELLA TYPHIMURIUM, Strain/Indicator: TA1535, Metabolic Activation: NONE, Method: PREINCUBATION) “inactive; negative”; (Test System: AMES SALMONELLA TYPHIMURIUM, Strain/Indicator: TA1535, Metabolic Activation: RAT, LIVER, S-9, AROCLOR 1254 (10 OR 30%), Method: PREINCUBATION) “inactive; negative”; (Test System: AMES SALMONELLA TYPHIMURIUM, Strain/Indicator: TA1537, Metabolic Activation: HAMSTER, LIVER, S-9, AROCLOR 1254 (10%), Method: PREINCUBATION) “inactive; negative”; (Test System: AMES SALMONELLA TYPHIMURIUM, Strain/Indicator: TA1537, Metabolic Activation: NONE, Method: PREINCUBATION) “inactive; negative”; (Test System: AMES SALMONELLA TYPHIMURIUM, Strain/Indicator: TA1537, Metabolic Activation: RAT, LIVER, S-9, AROCLOR 1254 (10%), Method: PREINCUBATION) “inactive; negative”.

For `Oc1cccc2ccc3[nH]c4ccc5ccccc5c4c3c12`, the mutagenic call is, setting by setting: (Test System: AMES SALMONELLA TYPHIMURIUM, Strain/Indicator: TM677, Metabolic Activation: NONE, Method: PREINCUBATION) “inactive; negative”; (Test System: AMES SALMONELLA TYPHIMURIUM, Strain/Indicator: TM677, Metabolic Activation: RAT, LIVER, S-9, 3-METHYLCHOLANTHRENE (1%), Method: PREINCUBATION) “inactive; negative”; (Test System: AMES SALMONELLA TYPHIMURIUM, Strain/Indicator: TM677, Metabolic Activation: RAT, LIVER, S-9, 3-METHYLCHOLANTHRENE (10%), Method: PREINCUBATION) “inactive; negative”; (Test System: AMES SALMONELLA TYPHIMURIUM, Strain/Indicator: TM677, Metabolic Activation: RAT, LIVER, S-9, AROCLOR 1254 (10%), Method: PREINCUBATION) “inactive; negative”.

As to `O=[N+]([O-])c1ccc2ccc3c4c(cc5ccc1c2c53)C=C[C@H](O)[C@H]4O`, the mutagenic call runs as follows: (Test System: AMES SALMONELLA TYPHIMURIUM, Strain/Indicator: TA98, Metabolic Activation: NONE) “active; positive”; (Test System: AMES SALMONELLA TYPHIMURIUM, Strain/Indicator: TA98, Metabolic Activation: RAT, LIVER, S-9, AROCLOR 1254) “active; positive”; (Test System: CHINESE HAMSTER OVARY, Strain/Indicator: CHO-K1-BH4 (HGPRT), Metabolic Activation: NONE) “inactive; negative”; (Test System: CHINESE HAMSTER OVARY, Strain/Indicator: CHO-K1-BH4 (HGPRT), Metabolic Activation: RAT, LIVER, S-9, 3-METHYLCHOLANTHRENE) “inactive; negative”.

Take `O=[N+]([O-])c1cccc(S(=O)(=O)O)c1`: the mutagenic call runs as follows: under setting [10], “inactive; negative”; (Test System: AMES SALMONELLA TYPHIMURIUM, Strain/Indicator: TA98, Metabolic Activation: RAT, LIVER, S-9, KANECHLOR 500, Method: PREINCUBATION) “inactive; negative”; under setting [11], “inactive; negative”; (Test System: AMES SALMONELLA TYPHIMURIUM, Strain/Indicator: TA100, Metabolic Activation: RAT, LIVER, S-9, KANECHLOR 500, Method: PREINCUBATION) “inactive; negative”.
